Residues, ends and D or L forms follow the SMILES beside them. *: point of attachment. Cbz = O=C(OCc1ccccc1)*

In the assay the test system is EGFP-SCOC (isoform 1 and 3) in HeLa Flp-In T-Rex cells. As to the kind of experiment: Western blot of EGFP-SCOC protein levels with lysosomal or proteasomal inhibitors. It is filed as cell-based. Conditions: 7 h in full medium or EBSS, 10 µM MG132, 1 µM epoxymycin, 100 nM Bafilomycin A1. The method, then: To determine whether SCOC is functioning as an autophagy receptor and degraded by autophagy, we induced expression of EGFP-SCOC (isoform 1 and 3) in HeLa cells followed by 7 h EBSS starvation in the presence and absence of lysosomal or proteasomal inhibitors. […] Thus, both SCOC isoform1 and 3 are not turned over by autophagy, but by the proteasome.
HeLa Flp-In T-Rex cell lines expressing GFP-SCOC (isoform 1), GFP-SCOC (isoform 3), GFP-SCOC F14A/I17A (isoform 3) from a tetracycline inducible CMV promoter were made using the FlpIn T-Rex system (Thermofisher, R71407). pDest-EGFP-Flp-In SCOC iso1, pDest-EGFP-Flp-In SCOC iso3 and pDest-EGFP-Flp-In SCOC iso3 LIRm constructs were established by GATEWAY cloning into the pDEST-EGFP-FlpIn vector.[18] The HeLa-based Flp-In T-Rex host cell line (Invitrogen) contains a single integrated FRT site for insertion of selected constructs. To generate stable cell lines, Flp-In plasmids carrying the selected GFP-tagged constructs were co-transfected with pOG44 encoding the Flp-In recombinase in the ratio of 1:3. Cells were selected by treatment with 200 µg/ml Hygromycin B (Invitrogen, #10687010) and 7,5 µg/ml Blasticidine (Gibco, A1113903). Expression from the CMV-TetO2 promoter was induced by adding 0.5 μg/ml of tetracycline (Sigma, T7660) for 16 to 24 hours. HeLa Flp-In T-Rex cell lines were maintained in Dulbecco’s modified Eagle’s medium supplemented with 10% fetal calf serum, 4 mM l-glutamine, 1% streptomycin-penicillin, 100 µg/ml Hygromycin B, and 3.5 µg/ml Blasticitidine. Cells were treated as indicated with 100 nM Bafilomycin A1, 10 µM MG132, or 1 µM epoxomicin in full medium or Earle’s balanced salt solution (EBSS).
Cells were lysed in ice-cold TNTE buffer (20 mM Tris-HCl, pH 7.4, 150 mM NaCl, 0.5% w/v Triton X-100, 10% v/v glycerol, 5 mM EDTA) containing EDTA-free Complete Protease Inhibitor cocktail (Roche) and PhosSTOP (Roche). Lysates were cleared by centrifugation and resolved on NuPAGE Bis-Tris 4–12% gels (Life Technologies) followed by transfer onto a PVDF membrane (Millipore). […]

`CC[C@H](C)[C@H](NC(=O)[C@H]([C@@H](C)CC)N(C)C(C)=O)C(=O)N[C@H](C(=O)N[C@@H](CC(C)C)C(=O)[C@@]1(C)CO1)[C@@H](C)O` [epoxymycin]: the “SCOC isoform 1 and 3 protein levels” value was “increased”. As to `CO/C1=C\C(C)=C\[C@@H](C)[C@@H](O)[C@@H](C)C/C(C)=C/C=C/[C@H](OC)[C@@H]([C@@H](C)[C@@H](O)[C@H](C)[C@@]2(O)C[C@@H](O)[C@H](C)[C@@H](C(C)C)O2)OC1=O` [BafilomycinA1], the “SCOC isoform 1 and 3 protein levels” value is recorded as “did not have any effect”. To `CC(C)C[C@@H](C=O)NC(=O)[C@H](CC(C)C)NC(=O)[C@H](CC(C)C)NC(=O)OCc1ccccc1` [MG132] (Cbz-Leu-Leu-Leu-aldehyde) belongs “increased”.
